This note sets out measurements from patent US10822376B2, “Biologically active peptides” (Baxalta Incorporated, priority 2008, dated 2020).

The test system of data set [1] is FVIII-inhibited human normal plasma. Nature of the data set: Defined Fibrin Deposition Assay (clotting time). It is filed as biochemical. The conditions noted are these: for Activity in the Defined Fibrin Deposition Assay: summary. The procedure:
Another suitable assay to determine procoagulant activity, and particularly FVIII equivalent activity or FVIII inhibitor bypassing activity, is the Defined Fibrin Deposition Assay as described below. […] This assay is particularly useful for determining coagulation FVIII activity because it is conducted in the presence of FVIII-depleted or inhibited plasma.
The Defined Fibrin Deposition Assay is performed as follows. FVIII activity of human citrated plasma (Baxter AG) is first inhibited by incubating (2 hours, 37° C.) 100 μl of human normal plasma with 25 μl heat inactivated anti-human FVIII plasma (300 BU/ml, 6 hours incubated at 56° C.) raised in goat. For each sample to be tested, 125 μl of this FVIII-inhibited human normal plasma is transferred to a pre-warmed cuvette and a 75 μl dilution of a test compound or FEIBA reference standard (Baxter AG) is added. The dilutions of test compound or FEIBA reference standard contain 50 mM imidazole, 100 mM NaCl and 10 mg/ml human serum albumin (Sigma) pH 7.4. As a trigger and for providing procoagulant surfaces 100 μl of a mix of human factor XIa (3.13 nM, Enzyme Research Laboratories) and phospholipid (PL) vesicles (Phosphatidylcholine/Phosphatidylserine 60%/40%, 30 μM; Avanti Polar Lipids) in 50 mM Imidazole, 100 mM NaCl, 10 mg/ml human serum albumin (Sigma) pH 7.4 is included. After incubating for three minutes at 37° C. the coagulation reaction is started by adding 100 μl of 25 mM CaCl2. Clot formation is monitored by a coagulometer (KC10A, Amelung, Germany). In brief, each cuvette rotates slowly above the magnetic detection device and contains a small magnetic metallic ball. Whilst the plasma components remain in solution, the ball sits at the bottom of the cuvette. Over time, a clot begins to form, such that the ball starts to rotate with the developing clot in the rotating cuvette. The “clotting time” is recorded and is defined as the time from addition of the CaCl2) to the time that the developing clot begins to rotate the metallic ball. A standard curve for FEIBA reference standard dilutions is calculated by linear regression of logarithmic FEIBA concentrations (x-axis) against the clotting time (y-axis). Based on the clotting time of each compound concentration FEIBA equivalent activities are calculated according to this standard curve.
Thus, where a concentration of 100 μM is given, the actual concentration in the final assay volume in 25 μM.
Various peptides were tested for the ability to stimulate fibrin deposition in the Defined Fibrin Deposition Assay as described in the specific description.

A short description of another data set: in vitro. It is filed as in vitro ADME. The note with it: mouse, microsomes, pH 7.4. The procedure:
Tests were used to determine the stability of compounds in microsomal preparations of human or animal origin. The microsomal stability is measured either in assays provided by Cerep (France, Catalog ref. 900-8h) or by the protocol described below. […] All wells must be carefully mixed to ensure a homogenous suspension before the next steps. 75 μl samples (duplicates) at t=0 minutes are taken for each compound. The plate is sealed and returned to the water bath/thermomixer for 30 minutes. The test compounds/standards are extracted by addition of 200 μl methanol, also including an internal standard. […] The samples are centrifuged at 1300 g for 10 min at 4° C. 200 μl of the supernatant is transferred into a 96-well plate with 10 μl DMSO per well. Compound stability is measured by HPLC-MS analysis (triplicates). The same procedure is repeated after 30 min. […] The signal to noise ratio for all peaks must be 5:1 or better. The ratio AUCanalyte: AUCstandard at the different timepoints must be used. The calculated stability for the control compound must fall in a certain range to validate the assay.

The target of data set [2] is T1, HERG channel (Homo sapiens, UniProt Q12809). As to the kind of experiment: HERG inhibition, patch clamp assay. The conditions noted are these: patch clamp assay. The procedure:
QT prolongation is assessed by HERG inhibition measured by patch-clamp techniques or Rb^+ efflux.
For rigorous characterization of HERG inhibition the patch clamp assay is applied (Cerep, France, Catalog ref. 900-36). […] The test compounds (10 mM stock solutions) were dissolved in dimethylsulfoxide (DMSO). The solutions at 1 μM contained 0.01% DMSO.
For orientation: The patch-clamp technique gives a direct electrical read-out from membranes.

Another data set is described as follows: in vivo. The conditions noted are these: C57BL/6, mouse.
Data set [3] addresses T1, HERG channel. It is filed as cell-based.
Protocol: It was tested at 10 μM and the data were compared with historical values determined at Cerep.
For another data set, the system named is C57BI/6 mice. Nature of the data set: Acute toxicology in mice. The note with it: 60 minutes following administration; for Max dose within toxicity category: Severe toxicity (one of the animals died within one hour) / Max dose within toxicity category: Some toxicity (ataxy or catalepsy, no deaths): i.v. The format is in vivo, mouse. The procedure:
Toxicology studies involved monitoring of attitude changes due to toxic effects immediately after application and twice daily; monitoring of body weight; histopathology of brain, heart, kidney, liver, lung. Experiments were performed in C57131/6 mice.
C57BI/6 mice weighing 18-20 g were administered with compounds in a suitable vehicle i.v. in the tail vein or i.p. or s.c at 10 ml/kg. Quantities of the compounds administered were in the range of 0.075 to 125 mg/kg (i.v.), 15-125 mg/kg (i.p.) and 125 mg/kg (s.c.). There were four mice per group. Attitude changes due to toxic effects were monitored immediately after administration of the compound and for 60 minutes thereafter. Body weight was monitored for five days after administration. At day 5 after administration, mice were culled and autopsy performed. Brain, heart, kidney, liver, lung and spleen were biopsied.
In the above table, the maximum dose tested giving rise to no detected toxicity, some toxicity or severe toxicity over the period of 60 minutes following administration is reported. “No detected toxicity” indicates no acute toxic observations.

Where a SMILES comes first, the peptide text is derived from it. Where no end group is shown, it is not given here. [ ]: non-standard residue; d: D form.

T1 sequence (Q12809 whole entry): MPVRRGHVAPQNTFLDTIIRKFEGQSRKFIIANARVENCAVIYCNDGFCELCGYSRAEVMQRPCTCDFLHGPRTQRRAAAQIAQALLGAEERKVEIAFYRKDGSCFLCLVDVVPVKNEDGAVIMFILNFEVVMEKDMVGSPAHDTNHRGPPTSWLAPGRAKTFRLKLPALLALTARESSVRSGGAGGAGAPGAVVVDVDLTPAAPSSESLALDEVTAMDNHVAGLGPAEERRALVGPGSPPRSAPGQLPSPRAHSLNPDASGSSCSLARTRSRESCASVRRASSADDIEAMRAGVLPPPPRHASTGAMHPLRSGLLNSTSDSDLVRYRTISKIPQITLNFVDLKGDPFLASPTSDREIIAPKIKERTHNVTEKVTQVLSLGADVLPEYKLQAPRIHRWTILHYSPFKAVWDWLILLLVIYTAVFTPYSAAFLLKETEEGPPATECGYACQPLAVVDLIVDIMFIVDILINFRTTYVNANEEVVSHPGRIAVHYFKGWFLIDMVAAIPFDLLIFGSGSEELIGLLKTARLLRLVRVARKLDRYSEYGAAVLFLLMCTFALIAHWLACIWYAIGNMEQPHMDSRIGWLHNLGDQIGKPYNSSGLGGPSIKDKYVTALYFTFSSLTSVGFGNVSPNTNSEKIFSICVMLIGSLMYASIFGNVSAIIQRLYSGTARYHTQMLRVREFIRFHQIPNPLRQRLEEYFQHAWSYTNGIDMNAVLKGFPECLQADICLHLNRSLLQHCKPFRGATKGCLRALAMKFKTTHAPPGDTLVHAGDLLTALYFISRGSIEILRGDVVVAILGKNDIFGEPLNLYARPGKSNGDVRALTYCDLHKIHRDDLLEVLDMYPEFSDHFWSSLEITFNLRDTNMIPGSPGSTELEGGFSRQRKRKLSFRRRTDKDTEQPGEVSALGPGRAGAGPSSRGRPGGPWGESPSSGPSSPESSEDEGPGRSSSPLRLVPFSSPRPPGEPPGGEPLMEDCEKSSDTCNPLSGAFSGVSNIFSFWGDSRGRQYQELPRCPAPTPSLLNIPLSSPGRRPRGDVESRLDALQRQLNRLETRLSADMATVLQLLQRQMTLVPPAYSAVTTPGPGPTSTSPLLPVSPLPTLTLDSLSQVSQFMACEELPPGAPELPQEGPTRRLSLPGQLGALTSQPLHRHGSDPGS
Protocol for in vivo: Pharmacokinetics of compounds were tested in C57BI/6 mice or Wistar rats at 1-30 mg/kg. Compound concentrations in the blood stream were monitored at appropriate intervals using LC-MS.
Pharmacokinetic studies were performed to monitor compound concentrations in plasma following i.v., i.p. or s.c. administration. Studies were conducted in C57BI/6 mice weighing approximately 20 g.
Peptide concentrations in the plasma were analysed by HPLC-MS on a Surveyor HPLC combined with mass spectrometer LCQ classic or Advantage (all Thermo Electron, US) equipped with an ESI-source. All HPLC experiments were carried out on a Phenomenex C-18 Luna column (50 mm×2.0 mm, 5 μl injection volume) using a linear gradient: eluent A 0.05% trifluoracetic acid (TFA) in water; eluent B 0.05% TFA in acetonitrile; flow rate 0.3 mL/min in 10 min. […] The internal standard is prepared as a 0.1 μg/ml solution in 100% methanol. 50 μl plasma and 50 μl internal standard are mixed. 100 μl methanol is added and mixed thoroughly. After 30 min incubation on ice the vial is centrifuged for 15 min at 4° C. […] 150 μl of the supernatant are transferred into the HPLC vial

For the compound Ac-RMKFDVWDLYFEIVW-NH2 [Peptide A01], the “FEIBA EU (from clotting time)” value in data set [1] (compound 25 μM) amounted to 80 mU/ml. Further, the “FEIBA EU (from clotting time)” value in data set [1] (compound 50 μM) was 127 mU/ml. The “FEIBA EU (from clotting time)” value in data set [1] (compound 100 μM) is listed as 145 mU/ml. The “Activity in the Defined Fibrin Deposition Assay” value (“Activity” below) in data set [1] was “possess activity”. The amount remaining at 0.5 h, 1 μM in the data set “in vitro” was found to be 30%. Moreover, the “Classification as HERG-channel blocker (potency ranking of Roche et al.)” value (from here on “Classification as HERG-channel blocker”) on HERG channel [2] is “low-potency”. For the same compound, in “in vivo” (iv), the level at 5 min was 673 ng/mL, the level at 10 min turned out to be 352 ng/mL, the level at 0.25 h came out at 454 ng/mL and the level at 20 min turned out to be 145 ng/mL. Moreover, in “in vivo” (iv), the level at 25 min is 282 ng/mL and the level at 0.5 h turned out to be 115 ng/mL.

Regarding Ac-PMKFDVWDLYFEIVW-NH2 [Peptide A02], the amount remaining at 0.5 h, 1 μM in the data set “in vitro” was 45%. Besides, the “HERG inhibition Rb+ efflux (% Inhibition at 10 μM)” value on HERG channel [3] was −3.3%. In “in vivo” (ip), this compound yielded a level at 5 min of 273 ng/mL, a level at 20 min of 315 ng/mL, a level at 40 min of 289 ng/mL and a level at 1 h of 612 ng/mL. Besides, in “in vivo” (ip), the level at 80 min was 99 ng/mL and the level at 100 min is 176 ng/mL. For the same compound, in “in vivo” (iv), the level at 5 min is 11600 ng/mL, the level at 10 min came out at 7260 ng/mL, the level at 0.25 h was found to be 3180 ng/mL and the level at 20 min is 2740 ng/mL. Further, in “in vivo” (iv), the level at 25 min amounted to 1440 ng/mL and the level at 0.5 h came out at 1310 ng/mL.

H-ERMEFDVWDLYFEIVW-NH2 [Peptide A09] displayed an amount remaining at 0.5 h, 1 μM in “in vitro” of 23%. The “HERG inhibition Rb+ efflux (% Inhibition at 10 μM)” value on HERG channel [3] is −1.6%. Also, the “Max dose within toxicity category: No detected toxicity” value in the data set with C57BI/6 mice (i.p.) is given as 15 mg/kg. In the data set “in vivo” (ip), the level at 5 min stood at 34 ng/mL, the level at 20 min is 67 ng/mL, the level at 40 min turned out to be 60 ng/mL and the level at 1 h was 129 ng/mL. In the data set “in vivo” (ip), the level at 80 min was determined as 74 ng/mL and the level at 100 min stood at 68 ng/mL. In “in vivo” (iv), this compound displayed a level at 5 min of 350 ng/mL, a level at 10 min of 184 ng/mL, a level at 0.25 h of 109 ng/mL and a level at 20 min of 119 ng/mL. In the data set “in vivo” (iv), this compound registered a level at 25 min of 64 ng/mL and a level at 0.5 h of 80 ng/mL.

Ac-WDLYFEIVW-NH2 [Peptide A05]: the “FEIBA EU (from clotting time)” value in data set [1] (compound 10 μM) was found to be 119 mU/ml. Besides, the “FEIBA EU (from clotting time)” value in data set [1] (compound 25 μM) came out at 193 mU/ml. The “FEIBA EU (from clotting time)” value in data set [1] (compound 50 μM) amounted to 219 mU/ml. Moreover, in data set [1], the “Activity” value is recorded as “possess activity”. For the same compound, the “Classification as HERG-channel blocker” value on HERG channel [2] is listed as “low-potency”. For the same compound, in the data set with C57BI/6 mice, the “Max dose within toxicity category: Severe toxicity (one of the animals died within one hour)” value turned out to be 15 mg/kg and the “Max dose within toxicity category: Some toxicity (ataxy or catalepsy, no deaths)” value was determined as 1.5 mg/kg. Further, in “in vivo” (ip), the level at 5 min came out at 119 ng/mL, the level at 20 min stood at 165 ng/mL, the level at 40 min turned out to be 185 ng/mL and the level at 1 h was 130 ng/mL. In the data set “in vivo” (ip), this compound gave a level at 80 min of 49 ng/mL and a level at 100 min of 50 ng/mL. In “in vivo” (iv), the level at 5 min turned out to be 2600 ng/mL, the level at 10 min was found to be 2040 ng/mL, the level at 0.25 h was 173 ng/mL and the level at 20 min was 101 ng/mL. The compound also returned a level at 25 min in the data set “in vivo” (iv) of 23 ng/mL.

For the compound `CC[C@@H](C)[C@@H](NC(=O)[C@@H](CS)NC(C)=O)C(=O)N[C@H](CCSC)C(=O)N[C@H](Cc1ccccc1)C(=O)N[C@H](Cc1c[nH]c2ccccc12)C(=O)N[C@H](Cc1ccc(O)cc1)C(=O)N[C@H](CC(=O)O)C(=O)N[C@H](CCC(=O)O)C(=O)N[C@H](Cc1ccc(O)cc1)C(=O)N[C@H](CCC(=O)O)C(N)=O` [Peptide B03, Ac-cimfwydeye-NH2] (Ac-[dC][dI][dM][dF][dW][dY][dD][dE][dY][dE]-NH2), the “FEIBA EU (from clotting time)” value came out at 291 mU/ml in data set [1] (compound 12.5 μM) and 325 mU/ml in data set [1] (compound 25 μM). Also, the “Activity” value in data set [1] is reported as “possess activity”. The “Classification as HERG-channel blocker” value on HERG channel [2] is listed as “high potency”. Besides, the “HERG inhibition Rb+ efflux (% Inhibition at 10 μM)” value at HERG channel [3] is listed as −2.1%. Further, in the data set on C57BI/6 mice, the “Max dose within toxicity category: Severe toxicity (one of the animals died within one hour)” value was 15 mg/kg.

As for Ac-WDLYFEIVWE [Peptide A06], the “FEIBA EU (from clotting time)” value in data set [1] (compound 12.5 μM) was 232 mU/ml. Also, the “FEIBA EU (from clotting time)” value in data set [1] (compound 25 μM) came out at 168 mU/ml. For the same compound, the “Activity” value in data set [1] is recorded as “possess activity”. Also, the share remaining at 0.5 h, 1 μM in the data set “in vitro” was found to be 49%. In addition, the “HERG inhibition Rb+ efflux (% Inhibition at 10 μM)” value on HERG channel [3] is −6.4%. In the data set on C57BI/6 mice, the “Max dose within toxicity category: Severe toxicity (one of the animals died within one hour)” value is reported as 25 mg/kg and the “Max dose within toxicity category: Some toxicity (ataxy or catalepsy, no deaths)” value stood at 5 mg/kg. Besides, in the data set “in vivo” (ip), the level at 5 min amounted to 6440 ng/mL, the level at 20 min turned out to be 7770 ng/mL, the level at 40 min was found to be 547 ng/mL and the level at 1 h was found to be 5800 ng/mL. Besides, in the data set “in vivo” (ip), the level at 80 min came out at 4060 ng/mL and the level at 100 min came to 3020 ng/mL. For the same compound, in the data set “in vivo” (iv), the level at 5 min was found to be 50000 ng/mL, the level at 10 min was 32600 ng/mL, the level at 0.25 h was 21000 ng/mL and the level at 20 min amounted to 15600 ng/mL. In the data set “in vivo” (iv), this compound came in with a level at 25 min of 11300 ng/mL and a level at 0.5 h of 7790 ng/mL.

Usually share remaining stands for what is left of the initial amount, in per cent. A lower share remaining goes with more turnover.
